{"source": "patent US11179430B2", "about": "“Extracts from mother-of-thyme and the use i'hereof” (Finzelberg GmbH & Co. KG, priority 2012, dated 2021)", "test_system": "TNBS-induced colitis in Wistar rats", "test": "In vivo TNBS test model (colitis in rats)", "procedure": "Female Wistar rats (200-210 g) were kept in Makrolon cages in air-conditioned animal quarters with 12 hours light-dark cycle, fed standard rodent food and water ad libitum throughout the experiment. The rats are randomly assigned to six groups (n=10). Two groups (healthy and sick controls) obtain 1 ml of the administration medium orally, and the test groups obtain either 100 mg/kg BW of a wild thyme extract formulation according to Example 4, or 70 mg/kg BW of a wild thyme extract formulation according to Example 3, or 30 mg/kg BW of the prebiotic Nutriose, or 100 mg/kg BW sulfasalazine (SAZ) in the reference group. All test substances are administered once a day as a solution or suspension through a gastric tube for a period of 7 days. The administration of the test substances starts at the same day as the colitis induction. For this purpose, the rats are fasted over night, and then a colitis is induced in both the sick control group and the treatment groups with TNBS as follows: During a halothane anesthesia, a solution (10 mg of TNBS dissolved in 0.25 ml of ethanol 50% v/v) is injected from a Teflon cannula through the anus 8 cm deep into the intestine. The rats of the healthy control group are administered 0.25 ml of a PBS solution instead of the TNBS solution. The body weight, the water and food intake and the stool consistency are recorded daily during the testing period. One week after the start of the colitis induction, all the rats are sacrificed by an overdose of halothane, and the intestine is removed for evaluating the intestinal damage. The intestinal segment is cleaned from fat and mesenterium, and transferred to a filter paper. Each specimen is weighed, and its length is measured under a constant load (2 g), and the weight-to-length ratio is determined therefrom. Independently of the treatment employed, the intestine is evaluated macroscopically for visible damage on a scale of from 0 to 10 by two observers by means of previously defined criteria, which take the extension and severity of the damage into account. […]", "data": [{"smiles": "O=C(O)c1cc(/N=N/c2ccc(S(=O)(=O)Nc3ccccn3)cc2)ccc1O", "note": "[Sulfasalazine, sulfasalazine]", "values": [{"measurement": "IL-6", "setting": "100 mg/kg oral once a day, 7 days, colitic control 281.8 ± 26.8", "result": "222.0 ± 16.1", "unit": "ng/g"}, {"measurement": "MPO", "setting": "100 mg/kg oral once a day, 7 days, colitic control 8969.6 ± 1402.0", "result": "5591.5 ± 537.0", "unit": "mU/g"}, {"measurement": "significant influence on the parameters of Table 3, in words", "setting": "doses as in Table 3, vs. colitic control", "result": "could not show significant improvements in all parameters"}]}]}
